Laboratory results: US10517889B2, “Modulators of SMAD7 expression” (Ionis Pharmaceuticals, Inc., priority 2017, dated 2019)
Strand notation (5' to 3'): a small letter for the sugar, then the base; units joined by * are phosphorothioate-linked, units joined directly phosphodiester-linked; [ ] holds rarer units or linkages, { } end groups; capitals alone tell only the bases. k = constrained ethyl (cEt); [5mC] = 5-methylcytosine; d = 2'-deoxy (DNA)

Tested on: human SMAD7 mRNA
Experiment: Antisense inhibition of human SMAD7 mRNA expression in Hep3B cells by 3-10-3 cEt gapmers, 10,000 nM, electroporation (Example 2)
Format: cell-based
Conditions: Hep3B cells, 10,000 nM antisense oligonucleotide, electroporation, approximately 24 hours, RT-PCR primer probe set RTS5062, relative to untreated control cells
Experimental: Antisense oligonucleotides were designed to target human SMAD7 mRNA and were tested for their effects on SMAD7 mRNA expression in vitro. The antisense oligonucleotides were tested in a series of experiments that had similar culture conditions, as described below. ION 771576, described in the studies above and which is a 5-10-5 MOE gapmer, was also included in these assays. Cultured Hep3B cells at a density of 20,000 cells per well were transfected using electroporation with 10,000 nM antisense oligonucleotide. After a treatment period of approximately 24 hours, RNA was isolated from the cells and SMAD7 mRNA levels were measured by quantitative real-time PCR. Primer probe set RTS5062 was used to measure human SMAD7 mRNA levels. SMAD7 mRNA levels were adjusted according to total RNA content, as measured by RIBOGREEN®. Results are presented as percent inhibition of SMAD7 mRNA expression, relative to untreated control cells.
The newly designed chimeric antisense oligonucleotides in the Tables below were designed as 3-10-3 cEt gapmers. The gapmers are 16 nucleosides in length, wherein the central gap segment comprises often 2′-deoxynucleosides and is flanked by wing segments on the 5′ direction and the 3′ direction comprising three nucleosides each. Each nucleoside in the 5′ wing segment and each nucleoside in the 3′ wing segment has a cEt sugar modification. The internucleoside linkages throughout each gapmer are phosphorothioate (P═S) linkages. All cytosine residues throughout each gapmer are 5-methylcytosines.
“Start site” indicates the 5′-most nucleoside to which the gapmer is targeted in the human gene sequence. “Stop site” indicates the 3′-most nucleoside to which the gapmer is targeted human gene sequence. […] Some of the oligonucleotides presented were complementary to SMAD7 mRNA sequences RefSeqNo. NM_001190821.1 (designated herein as SEQ ID NO: 3) or RefSeqNo. NM_001190822.1 (designated herein as SEQ ID NO: 4), and are presented in a separate table shown below.

First: 798876 (kG*kG*k[5mC]*d[5mC]*dG*d[5mC]*dT*dG*d[5mC]*dA*dG*dG*d[5mC]*kT*kG*kT; antisense) [compound 798876]
Second: 798858 (kG*kG*kT*dA*dA*d[5mC]*dT*dG*d[5mC]*dT*dG*d[5mC]*dG*kG*kT*kT; antisense) [compound 798858]
The “% Inhibition” value of the first is higher: 50% for the first, 46% for the second.

Same assay, conditions: Hep3B cells, electroporation with 10,000 nM antisense oligonucleotide, approximately 24 hours, RTS5062, percent inhibition of SMAD7 mRNA relative to untreated control cells

First: 799783 (kG*k[5mC]*kA*d[5mC]*dA*dT*dA*dA*dT*dA*dG*dG*dT*kG*kT*k[5mC]; antisense) [compound 799783]
Second: 799665 (antisense kG*kA*kT*dG*d[5mC]*d[5mC]*dA*dG*d[5mC]*dA*dA*dG*dG*kA*kT*k[5mC]) [compound 799665]
The “% Inhibition” value of the first is lower: 24% for the first, 57% for the second.

Going from “799829 (antisense kG*kA*kG*dT*dT*dT*dG*d[5mC]*dG*dA*dG*d[5mC]*d[5mC]*kA*kA*kG) [compound 799829]” to “799687 (antisense kG*kG*k[5mC]*dA*dG*d[5mC]*dA*dG*dA*d[5mC]*d[5mC]*dA*dT*k[5mC]*kT*kT) [compound 799687]”, the “% Inhibition” value falls from 75% to 35%.

For “799688 (antisense k[5mC]*kA*k[5mC]*d[5mC]*dA*d[5mC]*d[5mC]*d[5mC]*dA*dA*dA*dG*d[5mC]*k[5mC]*kT*kG) [compound 799688]”, the “% Inhibition” value was 50%.

Same assay, conditions: Hep3B cells, electroporation with 10,000 nM antisense oligonucleotide, approximately 24 hours, SMAD7 mRNA by RT-PCR (RTS5062), relative to untreated control cells

First: 799881 (kA*kA*kT*dA*dA*dA*dT*dT*d[5mC]*d[5mC]*dA*dA*dT*kG*k[5mC]*kA; antisense) [compound 799881]
Second: 798739 (antisense k[5mC]*kG*k[5mC]*d[5mC]*dT*dT*d[5mC]*dA*dG*dA*dT*d[5mC]*d[5mC]*kG*k[5mC]*k[5mC]) [compound 798739]
The “% Inhibition” value of the first is lower: 0% for the first, 37% for the second.

Going from “830127 (antisense k[5mC]*k[5mC]*kT*d[5mC]*d[5mC]*dG*dA*dG*dG*d[5mC]*dA*d[5mC]*d[5mC]*kA*k[5mC]*kA) [compound 830127]” to “799428 (antisense kG*kA*k[5mC]*d[5mC]*dA*d[5mC]*dA*d[5mC]*dA*dG*dT*dA*d[5mC]*k[5mC]*kT*kA) [compound 799428]”, the “% Inhibition” value falls from 62% to 47%.

Compared with “798918 (kT*k[5mC]*kA*dG*d[5mC]*dT*d[5mC]*dA*d[5mC]*dG*d[5mC]*dT*d[5mC]*kT*kG*kT; antisense) [compound 798918]”, “790460 (kA*kG*kG*dA*dG*d[5mC]*dG*dG*d[5mC]*dG*dG*d[5mC]*dG*kG*k[5mC]*k[5mC]; antisense) [compound 790460]” is higher in “% Inhibition” value: 44% for the first, 58% for the second.

Going from “830081 (kG*kT*kG*dT*dA*dT*dA*d[5mC]*d[5mC]*d[5mC]*dT*dG*d[5mC]*kA*k[5mC]*kT; antisense) [compound 830081]” to “798755 (kG*k[5mC]*k[5mC]*d[5mC]*dA*dG*d[5mC]*d[5mC]*dT*dG*d[5mC]*dA*dG*kT*k[5mC]*k[5mC]; antisense) [compound 798755]”, the “% Inhibition” value rises from 0% to 46%.

Compared with “830038 (antisense k[5mC]*k[5mC]*kT*dA*dT*dT*dG*dG*d[5mC]*dT*dG*dA*dT*k[5mC]*kT*kG) [compound 830038]”, “800106 (antisense k[5mC]*kA*kG*dA*dG*dA*dG*dG*dG*dT*dT*dA*dG*kT*kG*kG) [compound 800106]” is lower in “% Inhibition” value: 50% for the first, 12% for the second.

Same assay, conditions: Hep3B cells, electroporation with 10,000 nM antisense oligonucleotide, approximately 24 hours, primer probe set RTS5062, relative to untreated control cells

First: 798746 (antisense kT*kG*kG*dA*dG*d[5mC]*dA*dG*d[5mC]*dA*dG*d[5mC]*dT*k[5mC]*k[5mC]*kA) [compound 798746]
Second: 790461 (k[5mC]*k[5mC]*kG*dG*dG*d[5mC]*dA*dG*dG*dA*dG*d[5mC]*dG*kG*k[5mC]*kG; antisense) [compound 790461]
The “% inhibition of SMAD7 mRNA expression” value of the first is lower: 30% for the first, 42% for the second.

First: 799243 (k[5mC]*k[5mC]*kA*d[5mC]*dT*dG*dG*dT*dG*dT*dT*d[5mC]*dG*kA*k[5mC]*kG; antisense) [compound 799243]
Second: 798704 (antisense k[5mC]*kT*kG*dT*d[5mC]*d[5mC]*dG*dT*d[5mC]*dG*d[5mC]*d[5mC]*d[5mC]*k[5mC]*kT*kT) [compound 798704]
The “% inhibition of SMAD7 mRNA expression” value of the first is lower: 19% for the first, 61% for the second.

First: 799183 (antisense k[5mC]*kT*kT*dT*dG*dT*dA*dG*dT*dT*dA*dG*dA*kA*kA*kA) [compound 799183]
Second: 799465 (antisense kA*kG*k[5mC]*dT*d[5mC]*dT*dA*dG*dG*d[5mC]*d[5mC]*dA*d[5mC]*kT*k[5mC]*k[5mC]) [compound 799465]
The “% inhibition of SMAD7 mRNA expression” value of the first is lower: 0% for the first, 64% for the second.

Going from “798744 (antisense kA*kG*k[5mC]*dT*dG*d[5mC]*d[5mC]*dG*d[5mC]*dT*d[5mC]*d[5mC]*dT*kT*k[5mC]*kA) [compound 798744]” to “799246 (antisense kA*k[5mC]*kA*dG*dT*dA*dT*d[5mC]*dT*dG*dG*dG*d[5mC]*k[5mC]*kA*k[5mC]) [compound 799246]”, the “% inhibition of SMAD7 mRNA expression” value rises from 12% to 74%.

First: 798993 (antisense k[5mC]*kA*k[5mC]*dA*d[5mC]*dT*d[5mC]*d[5mC]*dT*dG*dA*d[5mC]*dA*kA*kG*kT) [compound 798993]
Second: 799078 (antisense kA*kT*k[5mC]*d[5mC]*dA*dG*dG*dA*dG*d[5mC]*dA*dG*dA*kT*kG*kG) [compound 799078]
The “% Inhibition” value of the first is higher: 37% for the first, 19% for the second.

Going from “799212 (kT*kT*kA*dT*dA*d[5mC]*dA*d[5mC]*dA*dT*dT*dG*d[5mC]*kA*k[5mC]*kA; antisense) [compound 799212]” to “772702 (k[5mC]*kG*kT*d[5mC]*dT*dT*dT*dA*dT*dA*dT*dT*dT*kA*k[5mC]*kA; antisense) [compound 772702]”, the “% Inhibition” value falls from 35% to 23%.

In the case of “799177 (antisense kT*kT*kA*dT*dG*dT*dT*dA*dA*dA*dG*dT*d[5mC]*kT*kA*kA) [compound 799177]”, the “% Inhibition” value is reported as 0%.

Same assay, conditions: Hep3B cells, electroporation, 10,000 nM antisense oligonucleotide, approximately 24 hours, RTS5062, relative to untreated control cells

With “799771 (kG*k[5mC]*kA*dT*dA*dT*dG*d[5mC]*d[5mC]*dA*d[5mC]*dT*dG*kA*kG*kA; antisense) [compound 799771]” the “% inhibition of SMAD7 mRNA expression” value was 0%.

Same assay, conditions: SMAD7 mRNA, Hep3B cells, 10,000 nM antisense oligonucleotide, electroporation, approximately 24 hours, primer probe set RTS5062, relative to untreated control cells

Compared with “829746 (antisense k[5mC]*k[5mC]*kG*dG*dG*d[5mC]*dG*d[5mC]*dA*d[5mC]*dG*dG*d[5mC]*kT*k[5mC]*k[5mC]) [compound 829746]”, “790637 (kA*k[5mC]*k[5mC]*dT*dA*dG*dT*dT*d[5mC]*dG*d[5mC]*dA*dG*kA*kG*kT; antisense) [compound 790637]” is lower in “% Inhibition” value: 46% for the first, 0% for the second.

For “790469 (k[5mC]*kG*kG*dA*d[5mC]*dG*dA*dG*d[5mC]*dG*d[5mC]*dA*dG*kA*kT*k[5mC]; antisense) [compound 790469]”, the “% Inhibition” value was 41%.

Same assay, conditions: SMAD7 mRNA, Hep3B cells, electroporation with 10,000 nM antisense oligonucleotide, approximately 24 hours, primer probe set RTS5062, relative to untreated control cells

First: 829811 (kT*k[5mC]*k[5mC]*dA*dT*d[5mC]*dG*dG*dG*dT*dA*dT*d[5mC]*kT*kG*kG; antisense) [compound 829811]
Second: 829842 (k[5mC]*k[5mC]*kG*dA*dG*dG*d[5mC]*dA*dA*dA*dA*dG*d[5mC]*k[5mC]*kA*kT; antisense) [compound 829842]
The “% Inhibition” value of the first is lower: 0% for the first, 26% for the second.

Compared with “829894 (antisense kG*k[5mC]*kT*dG*dA*dT*d[5mC]*dT*dG*d[5mC]*dA*d[5mC]*dG*kG*kT*kA) [compound 829894]”, “829874 (antisense kG*kT*kT*dG*dT*d[5mC]*d[5mC]*dA*dG*dT*dG*dT*dG*kG*k[5mC]*kG) [compound 829874]” is higher in “% Inhibition” value: 41% for the first, 43% for the second.

Compared with “829978 (kA*kT*kA*dT*dT*dT*dA*dG*d[5mC]*dT*dG*dT*d[5mC]*kA*kG*kA; antisense) [compound 829978]”, “829798 (kG*kG*kG*dT*dT*dG*dA*dT*d[5mC]*dT*dT*d[5mC]*d[5mC]*k[5mC]*kG*kT; antisense) [compound 829798]” is lower in “% Inhibition” value: 50% for the first, 26% for the second.

Compared with “829795 (kT*kG*kA*dT*d[5mC]*dT*dT*d[5mC]*d[5mC]*d[5mC]*dG*dT*dA*kA*kG*kA; antisense) [compound 829795]”, “829843 (antisense kG*kA*kA*dT*dT*dG*dA*dG*d[5mC]*dT*dG*dT*d[5mC]*k[5mC]*kG*kA) [compound 829843]” is higher in “% Inhibition” value: 34% for the first, 49% for the second.

Compared with “829883 (antisense k[5mC]*kA*kG*dG*d[5mC]*dT*dG*dT*dA*d[5mC]*dG*d[5mC]*d[5mC]*kT*kT*k[5mC]) [compound 829883]”, “829885 (antisense k[5mC]*k[5mC]*kG*d[5mC]*dT*dG*d[5mC]*dA*dG*dG*d[5mC]*dT*dG*kT*kA*k[5mC]) [compound 829885]” is higher in “% Inhibition” value: 0% for the first, 31% for the second.
